According to publication PMC12584665, “In vitro and in vivo efficacy of vancomycin against Elizabethkingia species and the impact of increased vancomycin MICs” (Microbiology Spectrum, 2025):
Like-named read-outs stand apart in the source and are kept apart here.

Tests used:
[1] = tested on: Elizabethkingia anophelis; experiment: Broth microdilution (BMD) MIC; type: cell-based
From the text: Eighteen E. anophelis clinical isolates from the nationwide surveillance program (Taiwan Surveillance of Antimicrobial Resistance) were well characterized in our previous study ([7]) and were selected for susceptibility testing and minimum bactericidal concentration (MBC) assays. Among them, five isolates with different clonality (underlined strains in Fig. S1) were selected for the time-kill assays and in vivo experiments.
Broth microdilution, disc diffusion, Etest, and agar dilution assays were conducted following CLSI guidelines to determine vancomycin MICs ([8]). […] Criteria for Staphylococcus spp. were not adopted due to the lack of a zone diameter breakpoint. MBCs were determined following CLSI guidelines ([8]).

[2] = tested on: Elizabethkingia anophelis; experiment: Galleria mellonella (wax moth) infection survival model; type: in vivo; settings: 72 h
Method: (§1) In vivo efficacy was assessed by wax moth (Galleria mellonella), murine pneumonia, and murine thigh infection models following the protocols of our previous study ([2]). The Animal Ethics Committee of Taiwan’s National Health Research Institutes approved the murine pneumonia and thigh infection models.
G. mellonella was reared at the National Health Research Institutes of Taiwan. Caterpillars in the final instar larval stage (weight ca. 250 mg) were used. […] A 10 µL aliquot of E. anophelis at the predetermined lethal dose was injected into the hemocoel of each caterpillar via the last left proleg. Antibiotics were administered once into another proleg at the indicated time points; vancomycin (5, 10, or 20 mg/kg, 2 h post-inoculation); other glycopeptides (teicoplanin, 10 mg/kg, 30 min post-inoculation; dalbavancin, 8.75 mg/kg, 2 h post-inoculation; oritavancin, 15 mg/kg, 1 h post-inoculation) ([11][–][13]); or daptomycin (10 mg/kg, 2 h post-inoculation) ([13]). Each treatment group contained 6–8 caterpillars. A control group injected with sterile PBS was included to monitor for trauma-related mortality. Caterpillars were incubated at 37°C, and survival was recorded twice daily for 72 h.

[3] = tested on: Elizabethkingia anophelis; experiment: Murine neutropenic thigh infection model; type: in vivo, C57BL/6J mice; settings: 50 mg/kg intraperitoneal, 2 h and 14 h after inoculation
Method: as §1
For the thigh infection model, seven-week-old C57BL/6J mice were rendered neutropenic by intraperitoneal injections of cyclophosphamide (Cytoxan; Bristol-Myers Squibb, Princeton, NJ, USA) 4 days (150 mg/kg) and 1 day (100 mg/kg) before bacterial inoculation. A 30 µL aliquot containing the E. anophelis (10^7 cfu) was injected into each of the two rear thighs. Vancomycin (25 mg/kg or 100 mg/kg, subcutaneous) or teicoplanin (50 mg/kg, intraperitoneal) was administered 2 h and 14 h after inoculation. Mice were sacrificed 24 h post-inoculation, and homogenized thigh tissue was plated in serial 10-fold dilutions on brain-heart infusion agar to determine bacterial counts. Each mouse, not each thigh, was considered an individual data point.

[4] = tested on: Elizabethkingia anophelis; experiment: Murine pneumonia model; type: in vivo, C57BL/6J mice; settings: 50 mg/kg intraperitoneal twice daily
Method: as §1
For the pneumonia model, a bacterial suspension was mixed with 5% mucin from porcine stomach (type 3; Sigma-Aldrich, Saint Louis, USA). Seven-week-old C57BL/6J mice were anesthetized with isoflurane for 10 min. For each strain, the inoculum corresponded to the lowest dose that caused >80% mortality in preliminary testing. This inoculum (10⁶–10⁸ cfu, depending on strain) was delivered intratracheally to induce pneumonia. Two hours thereafter, mice received either high or human-equivalent doses of subcutaneous vancomycin (100 mg/kg or 25 mg/kg, respectively) or intraperitoneal teicoplanin (50 mg/kg) ([17]) twice daily for 3 days. Each group contained eight mice, and survival was monitored for 3 days.

[5] = Serum drug levels in mice (LC-MS/MS); type: in vivo; settings: single dose 50 mg/kg intraperitoneal teicoplanin vs 25 or 100 mg/kg subcutaneous vancomycin
Method: Fifty microliters of aliquots of murine serum was mixed with 100 µL acetonitrile. The mixture was vortexed and then centrifuged at 15,000 × g for 20 min in a Beckman Coulter Microfuge 22R Centrifuge at room temperature. The supernatant was transferred to a clean tube, and then 15 µL of the supernatant was injected onto LC-MS/MS. The chromatographic system consisted of an Agilent 1200 series LC system and an Agilent ZORBAX Eclipse XDB-C8 column (5 µm, 3.0 × 150 mm) interfaced to an MDS Sciex API3000 tandem mass spectrometer. The MS/MS ion transitions monitored were m/z 725/144 for vancomycin. A gradient HPLC method was employed for separation. Mobile phase A consisted of 10 mM ammonium acetate aqueous solution containing 0.1% formic acid and mobile phase B consisted of acetonitrile. The gradient profile was as follows (min/%B): 0.0–0.9/5, 1.0–2.0/50, 2.1–3.7/95, 3.8–5.0/5. The flow rate was set at 1.5 mL/min.

[6] = Elizabethkingia anophelis, E. anophelis clinical isolate 2008N05-106, read-out: MIC, BMD
[7] = Elizabethkingia anophelis, E. anophelis clinical isolate 2008S01-229, read-out: MIC, BMD
[8] = Elizabethkingia anophelis, E. anophelis clinical isolate 2014C06-157, read-out: MIC, BMD
[9] = Elizabethkingia anophelis, E. anophelis clinical isolate 2016N17-576, read-out: MIC, BMD
[10] = Elizabethkingia anophelis, E. anophelis clinical isolate 2018C04-213, read-out: MIC, BMD
[11] = Elizabethkingia anophelis, E. anophelis clinical isolate 2018C04-224, read-out: MIC, BMD
[12] = Elizabethkingia anophelis, E. anophelis clinical isolate 2018C07-210, read-out: MIC, BMD
[13] = Elizabethkingia anophelis, E. anophelis clinical isolate 2018C07-234, read-out: MIC, BMD
[14] = Elizabethkingia anophelis, E. anophelis clinical isolate 2018C08-127, read-out: MIC, BMD
[15] = Elizabethkingia anophelis, E. anophelis clinical isolate 2018E03-151, read-out: MIC, BMD
[16] = Elizabethkingia anophelis, E. anophelis clinical isolate 2018E04-135, read-out: MIC, BMD
[17] = Elizabethkingia anophelis, E. anophelis clinical isolate 2018N16-057, read-out: MIC, BMD
[18] = Elizabethkingia anophelis, E. anophelis clinical isolate 2018N17-036, read-out: MIC, BMD
[19] = Elizabethkingia anophelis, E. anophelis clinical isolate 2018N17-073, read-out: MIC, BMD
[20] = Elizabethkingia anophelis, E. anophelis clinical isolate 2018N17-153, read-out: MIC, BMD
[21] = Elizabethkingia anophelis, E. anophelis clinical isolate 2018N21-226, read-out: MIC, BMD
[22] = Elizabethkingia anophelis, E. anophelis clinical isolate 2018S09-023, read-out: MIC, BMD
[23] = Elizabethkingia anophelis, E. anophelis clinical isolate 2018S11-172, read-out: MIC, BMD
[24] = E. anophelis used in the G. mellonella assays of Fig. S4, isolate and method not given

C[C@H]1COc2c(N3CCN(C)CC3)c(F)cc3c(=O)c(C(=O)O)cn1c23 [Levofloxacin]
> 8 µg/mL: MIC [1, 6] | MIC [1, 8] | MIC [1, 9] | MIC [1, 10] | MIC [1, 11] | MIC [1, 12] | MIC [1, 13] | MIC [1, 18] | MIC [1, 19] | MIC [1, 20]
≤ 1 µg/mL: MIC [1, 7] | MIC [1, 16] | MIC [1, 17] | MIC [1, 21] | MIC [1, 22]
2 µg/mL: MIC [1, 14] | MIC [1, 15] | MIC [1, 23]

CN(C)c1ccc(O)c2c1C[C@H]1C[C@H]3[C@H](N(C)C)C(O)=C(C(N)=O)C(=O)[C@@]3(O)C(O)=C1C2=O [Minocycline]
≤ 2 µg/mL: MIC [1, 6] | MIC [1, 7] | MIC [1, 8] | MIC [1, 9] | MIC [1, 10] | MIC [1, 11] | MIC [1, 12] | MIC [1, 13] | MIC [1, 14] | MIC [1, 15] | MIC [1, 16] | MIC [1, 17] | MIC [1, 18] | MIC [1, 19] | MIC [1, 20] | MIC [1, 21] | MIC [1, 22] | MIC [1, 23]

CN[C@H]1C(=O)N[C@@H]2Cc3ccc(cc3)Oc3cc4cc(c3O[C@@H]3O[C@H](C(=O)O)[C@@H](O)[C@H](O)[C@H]3NC(=O)CCCCCCCCC(C)C)Oc3ccc(cc3Cl)[C@@H](O)[C@@H]3NC(=O)[C@H](NC(=O)[C@@H]4NC(=O)[C@@H](NC2=O)c2cc(cc(O)c2Cl)Oc2cc1ccc2O)c1ccc(O)c(c1)-c1c(O[C@H]2O[C@H](CO)[C@@H](O)[C@H](O)[C@@H]2O)cc(O)cc1[C@@H](C(=O)NCCCN(C)C)NC3=O [dalbavancin]
no survival benefit: survival of infected wax moths ([2]; 8.75 mg/kg once, 2 h post-inoculation)
64 mg/L: MICs [1, 24]

CCCCCCCCCC(=O)N[C@@H](Cc1c[nH]c2ccccc12)C(=O)N[C@H](CC(N)=O)C(=O)N[C@@H](CC(=O)O)C(=O)N[C@@H]1C(=O)NCC(=O)N[C@@H](CCCN)C(=O)N[C@@H](CC(=O)O)C(=O)N[C@H](C)C(=O)N[C@@H](CC(=O)O)C(=O)NCC(=O)N[C@H](CO)C(=O)N[C@@H]([C@H](C)CC(=O)O)C(=O)N[C@@H](CC(=O)c2ccccc2N)C(=O)O[C@@H]1C [daptomycin]
no survival benefit: survival of infected wax moths ([2]; 10 mg/kg once, 2 h post-inoculation)
128 µg/mL: MIC ([1]; E. anophelis used in the G. mellonella assays of Fig. S4, isolate and method not given, read-out: MICs)

CN[C@H](CC(C)C)C(=O)N[C@H]1C(=O)N[C@@H](CC(N)=O)C(=O)N[C@H]2C(=O)N[C@H]3C(=O)N[C@H](C(=O)N[C@H](C(=O)O)c4cc(O)cc(O)c4-c4cc3ccc4O)[C@H](O[C@H]3C[C@](C)(N)[C@@H](O)[C@H](C)O3)c3ccc(c(Cl)c3)Oc3cc2cc(c3O[C@@H]2O[C@H](CO)[C@@H](O)[C@H](O)[C@H]2O[C@H]2C[C@](C)(NCc3ccc(-c4ccc(Cl)cc4)cc3)[C@@H](O)[C@H](C)O2)Oc2ccc(cc2Cl)[C@H]1O [oritavancin]
no survival benefit: survival of infected wax moths ([2]; 15 mg/kg once, 1 h post-inoculation)
64 µg/mL: MIC ([1]; read-out: MICs, E. anophelis used in the G. mellonella assays of Fig. S4, isolate and method not given)

Teicoplanin
much higher than that of vancomycin: concentration in murine serum relative to vancomycin [5]
128 mg/L: MIC, BMD ([1]; E. anophelis clinical isolate 2008N05-106) | MIC, BMD ([1]; E. anophelis clinical isolate 2008S01-229) | MIC, BMD ([1]; E. anophelis clinical isolate 2014C06-157) | MIC, BMD ([1]; E. anophelis clinical isolate 2016N17-576) | MIC, BMD ([1]; E. anophelis clinical isolate 2018C04-213) | MIC, BMD ([1]; E. anophelis clinical isolate 2018C04-224) | MIC, BMD ([1]; E. anophelis clinical isolate 2018C08-127) | MIC, BMD ([1]; E. anophelis clinical isolate 2018E03-151) | MIC, BMD ([1]; E. anophelis clinical isolate 2018N16-057) | MIC, BMD ([1]; E. anophelis clinical isolate 2018N17-036) | MIC, BMD ([1]; E. anophelis clinical isolate 2018N17-073) | MIC, BMD ([1]; E. anophelis clinical isolate 2018N17-153) | MICs [1, 24]
little effect: reduction of bacterial loads in thigh [3] | survival of infected mice [4]
no survival benefit: survival of infected wax moths ([2]; 10 mg/kg once, 30 min post-inoculation)
64 mg/L: MIC, BMD ([1]; E. anophelis clinical isolate 2018E04-135) | MIC, BMD ([1]; E. anophelis clinical isolate 2018N21-226) | MIC, BMD ([1]; E. anophelis clinical isolate 2018S09-023) | MIC, BMD ([1]; E. anophelis clinical isolate 2018S11-172)
256 mg/L: MIC, BMD ([1]; E. anophelis clinical isolate 2018C07-210) | MIC, BMD ([1]; E. anophelis clinical isolate 2018C07-234)
